Source: PubChem BioAssay (NCI)
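Test compounds were applied to cells in 96-well plates for 48 hours at 5 doses. Abbreviation: GI50, concentration required for 50% inhibition of growth. At the TGI there is no net growth.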

Legend:
Assay in all cases: NCI tumour cell line growth inhibition, 48 h
NCI-H23 lung = system: NCI-H23 lung
SF-295 CNS = system: SF-295 CNS
HL-60(TB) leukemia = system: HL-60(TB) leukemia
HT29 colon = system: HT29 colon
MALME-3M melanoma = system: MALME-3M melanoma
HS 578T breast = system: HS 578T breast
MOLT-4 leukemia = system: MOLT-4 leukemia
ACHN renal = system: ACHN renal
DU-145 prostate = system: DU-145 prostate
786-0 renal = system: 786-0 renal
OVCAR-8 ovarian = system: OVCAR-8 ovarian
UACC-257 melanoma = system: UACC-257 melanoma
HCC-2998 colon = system: HCC-2998 colon
TK-10 renal = system: TK-10 renal
SN12C renal = system: SN12C renal
SW-620 colon = system: SW-620 colon
CCRF-CEM leukemia = system: CCRF-CEM leukemia
KM12 colon = system: KM12 colon
SNB-19 CNS = system: SNB-19 CNS
PC-3 prostate = system: PC-3 prostate
MDA-MB-435 = system: MDA-MB-435
MCF7 breast = system: MCF7 breast
U251 CNS = system: U251 CNS
HCT-15 colon = system: HCT-15 colon
HOP-62 NSCLC = system: HOP-62 NSCLC
T-47D breast = system: T-47D breast
SK-OV-3 ovarian = system: SK-OV-3 ovarian
UACC-62 melanoma = system: UACC-62 melanoma
RPMI-8226 leukemia = system: RPMI-8226 leukemia
SF-539 CNS = system: SF-539 CNS
SF-268 CNS = system: SF-268 CNS
HCT-116 colon = system: HCT-116 colon
OVCAR-4 ovarian = system: OVCAR-4 ovarian
A549 NSCLC = system: A549 NSCLC
NCI/ADR-RES ovarian = system: NCI/ADR-RES ovarian
CAKI-1 renal = system: CAKI-1 renal
OVCAR-5 ovarian = system: OVCAR-5 ovarian
M14 melanoma = system: M14 melanoma
NCI-H460 lung = system: NCI-H460 lung
NCI-H522 lung = system: NCI-H522 lung
BT-549 breast = system: BT-549 breast
OVCAR-3 ovarian = system: OVCAR-3 ovarian
UO-31 renal = system: UO-31 renal
IGROV1 ovarian = system: IGROV1 ovarian
RXF 393 renal = system: RXF 393 renal
SK-MEL-28 melanoma = system: SK-MEL-28 melanoma
SK-MEL-5 melanoma = system: SK-MEL-5 melanoma
SR leukemia = system: SR leukemia
K-562 leukemia = system: K-562 leukemia
COLO 205 colon = system: COLO 205 colon
NCI-H226 lung = system: NCI-H226 lung
MDA-MB-231 breast = system: MDA-MB-231 breast
SNB-75 CNS = system: SNB-75 CNS
A498 renal = system: A498 renal

For `COc1cc(C(=O)/C=C/c2cc(-c3ccc4c(c3)OCO4)n[nH]2)cc(OC)c1OC`, the GI50 (NCI-H23 lung) was 2900 nM, the TGI (NCI-H23 lung) was 10300 nM and the GI50 (SF-295 CNS) was 2580 nM. It also gave a TGI (SF-295 CNS) of 10100 nM, a GI50 (HL-60(TB) leukemia) of 2170 nM and a TGI (HL-60(TB) leukemia) of 6490 nM. The GI50 (HT29 colon) was 2450 nM, the TGI (HT29 colon) was 6530 nM and the GI50 (MALME-3M melanoma) was 1850 nM. For the same compound, the TGI (MALME-3M melanoma) was 4690 nM, the GI50 (HS 578T breast) was 3140 nM and the TGI (HS 578T breast) was 20500 nM. It also gave a GI50 (MOLT-4 leukemia) of 2710 nM, a TGI (MOLT-4 leukemia) of 8360 nM and a GI50 (ACHN renal) of 2200 nM. For the same compound, the TGI (ACHN renal) was 4950 nM, the GI50 (DU-145 prostate) was 2920 nM and the TGI (DU-145 prostate) was 9160 nM. The GI50 (786-0 renal) was 1840 nM, the TGI (786-0 renal) was 3460 nM and the GI50 (OVCAR-8 ovarian) was 2350 nM. For the same compound, the TGI (OVCAR-8 ovarian) was 6370 nM, the GI50 (UACC-257 melanoma) was 2950 nM and the TGI (UACC-257 melanoma) was 9460 nM. It also gave a GI50 (HCC-2998 colon) of 2020 nM, a TGI (HCC-2998 colon) of 4070 nM and a GI50 (TK-10 renal) of 2900 nM. The TGI (TK-10 renal) was 7170 nM, the GI50 (SN12C renal) was 2260 nM and the TGI (SN12C renal) was 6280 nM. It also gave a GI50 (SW-620 colon) of 1620 nM, a TGI (SW-620 colon) of 3800 nM and a GI50 (CCRF-CEM leukemia) of 2000 nM. For the same compound, the TGI (CCRF-CEM leukemia) was 5740 nM, the GI50 (KM12 colon) was 1860 nM and the TGI (KM12 colon) was 3850 nM. The GI50 (SNB-19 CNS) was 2340 nM, the TGI (SNB-19 CNS) was 11700 nM and the GI50 (PC-3 prostate) was 1510 nM. For the same compound, the TGI (PC-3 prostate) was 4020 nM, the GI50 (MDA-MB-435) was 2280 nM and the TGI (MDA-MB-435) was 5800 nM. For the same compound, the GI50 (MCF7 breast) was 1060 nM, the TGI (MCF7 breast) was 2880 nM and the GI50 (U251 CNS) was 1210 nM. The TGI (U251 CNS) was 2490 nM, the GI50 (HCT-15 colon) was 1950 nM and the TGI (HCT-15 colon) was 6750 nM. It also gave a GI50 (HOP-62 NSCLC) of 2320 nM, a TGI (HOP-62 NSCLC) of 6240 nM and a GI50 (T-47D breast) of 1510 nM. For the same compound, the TGI (T-47D breast) was 4630 nM, the GI50 (SK-OV-3 ovarian) was 4440 nM and the TGI (SK-OV-3 ovarian) was 14600 nM. For the same compound, the GI50 (UACC-62 melanoma) was 1810 nM, the TGI (UACC-62 melanoma) was 3890 nM and the GI50 (RPMI-8226 leukemia) was 506 nM. For the same compound, the TGI (RPMI-8226 leukemia) was 2530 nM, the GI50 (SF-539 CNS) was 1330 nM and the TGI (SF-539 CNS) was 2980 nM. For the same compound, the GI50 (SF-268 CNS) was 2450 nM, the TGI (SF-268 CNS) was 7640 nM and the GI50 (HCT-116 colon) was 1900 nM. For the same compound, the TGI (HCT-116 colon) was 4630 nM, the GI50 (OVCAR-4 ovarian) was 885 nM and the TGI (OVCAR-4 ovarian) was 4240 nM. It also gave a GI50 (A549 NSCLC) of 2130 nM, a TGI (A549 NSCLC) of 6230 nM and a GI50 (NCI/ADR-RES ovarian) of 2990 nM. For the same compound, the TGI (NCI/ADR-RES ovarian) was 12300 nM, the GI50 (CAKI-1 renal) was 1990 nM and the TGI (CAKI-1 renal) was 5650 nM. The GI50 (OVCAR-5 ovarian) was 2630 nM, the TGI (OVCAR-5 ovarian) was 9600 nM and the GI50 (M14 melanoma) was 2910 nM. The TGI (M14 melanoma) was 9200 nM, the GI50 (NCI-H460 lung) was 1810 nM and the TGI (NCI-H460 lung) was 3770 nM. The GI50 (NCI-H522 lung) was 1590 nM, the TGI (NCI-H522 lung) was 3410 nM and the GI50 (BT-549 breast) was 2020 nM. The TGI (BT-549 breast) was 5000 nM, the GI50 (OVCAR-3 ovarian) was 1710 nM and the TGI (OVCAR-3 ovarian) was 3500 nM. It also gave a GI50 (UO-31 renal) of 1340 nM, a TGI (UO-31 renal) of 2670 nM and a GI50 (IGROV1 ovarian) of 1990 nM. The TGI (IGROV1 ovarian) was 5720 nM, the GI50 (RXF 393 renal) was 1310 nM and the TGI (RXF 393 renal) was 2940 nM. It also gave a GI50 (SK-MEL-28 melanoma) of 1920 nM, a TGI (SK-MEL-28 melanoma) of 4180 nM and a GI50 (SK-MEL-5 melanoma) of 3320 nM. For the same compound, the TGI (SK-MEL-5 melanoma) was 13300 nM, the GI50 (SR leukemia) was 1200 nM and the TGI (SR leukemia) was 5630 nM. The GI50 (K-562 leukemia) was 2170 nM, the TGI (K-562 leukemia) was greater than 100000 nM and the GI50 (COLO 205 colon) was 2080 nM. It also gave a TGI (COLO 205 colon) of 4660 nM, a GI50 (NCI-H226 lung) of 1520 nM and a TGI (NCI-H226 lung) of 4250 nM. It also gave a GI50 (MDA-MB-231 breast) of 2080 nM, a TGI (MDA-MB-231 breast) of 6230 nM and a GI50 (SNB-75 CNS) of 2400 nM. The TGI (SNB-75 CNS) was 7270 nM, the GI50 (A498 renal) was 1750 nM and the TGI (A498 renal) was 4650 nM.
